Literature values as cited in patent publication US20230235017A1, “A DRUG SCREENING PLATFORM FOR ENDOSOMAL ENHANCERS TO TREAT ALZHEIMER'S DISEASE” (Aarhus Universitet, priority 2020, published 2023).

Tested on: endosomal activity
Details: shown in the literature (Mecozzi 2014); cited from earlier work

Compound: N=C(N)SCc1ccc(CSC(=N)N)s1 [R55]
- effect on endosomal activity: have an effect on endosomal activity
